Measurements taken from US20260217656A1, “Compounds Affecting KRAS” (UNIVERSITAT DE BARCELONA, priority 2022, published 2026).
pIC50: −log10 of the molar value. “Also recorded” adds a separate entry of the source.

Key:
Assay type in all cases: cell-based, human
[1] = test system: ERK and AKT in DLD-1-KO cells; assay: Western blot of AKT and ERK activation in serum-starved DLD-1-KO cells; conditions: DLD-1-KO serum-starved cells, 100 μM
Text: (§1) DLD-1 (KRASWT/G13D) (clone V15, #HD PAR-086) colorectal adenocarcinoma cell line and DLD-1 knockout of mutant KRAS allele, DLD-1 KO (KRASWT/−) (clone DWT7, #HD105-002), were obtained from Horizon Discovery Ltd. (Cambridge, UK). hTERT-RPE (KRASWT/WT) immortalized retinal pigment epithelial human cell line was obtained from the […] (ATCC). DLD-1 KO cells stably expressing HA-KRAS G12V were previously generated in our laboratory (Cabot et al., 2021). All cells were grown in DMEM-HAM s F12 (1:1) supplemented with 10% foetal bovine serum (Biological Industries, Israel), penicillin, streptomycin, and nonessential amino acids. […]
(§2) For analysis of RAS signalling, cells were lysed in a buffer containing 67 mM Tris-HCl pH 6.8 and 2% SDS and then the samples were heated at 97° C. for 15 minutes. Protein concentration of the lysates was assessed using the Lowry method. […]
(§3) Comparison of Ras signaling between DLD-1, DLD-1-KO and hTERT-RPE cells treated with P14B since important differences were observed between the viability of cells treated with P14B depending on their expression or lack of expression of oncogenic KRAS, we further studied whether these discrepancies were reflected also in KRAS downstream signaling. Serum-starved cells (0.1% FCS) were treated with P14B (100 μM) and activation of AKT and ERK was evaluated by WB. […]

[2] = test system: ERK and AKT in hTERT-RPE cells; assay: Western blot of AKT and ERK activation in serum-starved hTERT-RPE cells; conditions: 100 μM
Text: as §1, §2, §3

[3] = test system: ERK and AKT in DLD-1 cells stably expressing HA-KRAS-G12V; assay: Western blot of AKT and ERK phosphorylation in DLD-1 cells stably expressing HA-KRAS-G12V; conditions: serum-starved DLD-1 cells stably expressing HA-KRAS-G12V
Text: (§4) DLD-1 (KRASWT/G13D) (clone V15, #HD PAR-086) colorectal adenocarcinoma cell line and DLD-1 knockout of mutant KRAS allele, DLD-1 KO (KRASWT/−) (clone DWT7, #HD105-002), were obtained from Horizon Discovery Ltd. (Cambridge, UK). hTERT-RPE (KRASWT/WT) immortalized retinal pigment epithelial human cell line was obtained from the […] (ATCC). DLD-1 KO cells stably expressing HA-KRAS G12V were previously generated in our laboratory (Cabot et al., 2021). All cells were grown in DMEM-HAM s F12 (1:1) supplemented with 10% foetal bovine serum (Biological Industries, Israel), penicillin, streptomycin, and nonessential amino acids. Cells were tested once per month for mycoplasma contamination.
Cells were seeded in a media containing 10% FBS for 24 hours and then they were serum starved (0.1% FBS) for the next 24 hours. Afterwards, they were incubated with the different compounds during the times specified in each figure. When indicated, also in order to activate downstream KRAS cell signalling, treatment for 10 minutes with EGF (50 ng/mL) (Sigma-Aldrich) was performed. […]
We assessed the possibility that P14B favors RAS-effector binding and consequently increases downstream RAS signaling. […] The interaction was analyzed after 10 min of P14B treatment since P—C-RAF and P-MEK were observed after 15 min (FIG. 3C). […]

[4] = test system: DLD-1 cells; assay: MTS cell viability assay, DLD-1
Text: as §4
(§5) MTS viability assay (CellTiter 96® Aqueous One Solution Cell Proliferation Assay, Promega G3580) was assessed following the company conditions. The absorbance of each well was measured with a multimode plate reader (Spark, Tecan) at 490 nm. The percentage of cell viability was calculated by dividing the absorbance of each well by the average absorbance of the control wells.
(§6) Since both inhibition and sustained activation of RAS signaling are related to a decrease in cell survival, we analyzed the viability of the CRC cell lines DLD-1 (expressing oncogenic KRAS) and DLD-1-KO (oncogenic KRAS allele deleted), and the non-transformed cell line hTERT-RPE. […] At the IC50 of approximately 80 μM for DLD-1 cells, the viability of DLD-1-KO and of non-transformed cells was not affected (FIG. 6A). […] The effect of P14B in DLD-1 cells cultured in 3D conditions was also determined. […] Consequently, we conclude that P14B selectively reduces the viability of CRC cells expressing oncogenic KRAS, causing minor effects if these cells have been knocked out for oncogenic KRAS or in non-transformed cells. Thereby, P14B might be considered as an inducer of apoptosis in CRC with oncogenic KRAS.
[…] Each point corresponds to n=6. The concentration (μM) indicated in the graph is the one in the final 100 μL volume). **** p<0.0001 (t-student test).

[5] = test system: hTERT-RPE cells; assay: MTS cell viability assay, hTERT-RPE; conditions: non-transformed hTERT-RPE cells, at approximately 80 μM
Text: as §4
as §5, with “10,000 cells in 50 µL of 10% FBS-containing medium, were cultured for 24 hours and then treated with the compounds (50 μL final volume) for 48 h hours in each well of a 96-well plate (100 μL final volume). MTS” for “MTS”, “wells. […]” for “wells.”

[6] = test system: DLD-1 cells; assay: 3D on-top Matrigel assay
Experimental: FIG. 6B is a series of images of cells. In total 2.5×10^4 DLD-1 cells were cultured on top of a thin basement membrane matrix (Matrigel) overlaid with a dilute solution of this basement membrane matrix (3D on-top Matrigel assay). At the time of seeding or 24 h later, cells were treated with P14B ([…] after seeding the colonies that had formed were analysed. Representative phase-contrast images are shown. All scale bars, […]
3D on-top Matrigel assay was performed as described in (Cabot et al., 2021).
as §6

pIC50 ([4]; DLD-1 cells, dose-response 0 to 100 μM, 24 hours): ~4.10
Structure (SMILES): COc1ccc(C(c2c(C)n[nH]c2O)c2c(C)n[nH]c2O)cc1Oc1ccc([N+](=O)[O-])cc1 [Example P14B]
AKT and ERK activation [1]: AKT and ERK activation by P14B was also observed
levels of ERK phosphorylation compared with 10% FBS treatment [1]: significantly lower
AKT and ERK phosphorylation [2]: no significant increase
phosphorylation of AKT and ERK [3]: induced phosphorylation of AKT and ERK
maxim cell viability reduction compared with Erlotinib ([4]; DLD-1, 5000 cells, 48 h treatment): significantly higher
cell viability ([4]; DLD-1 cells, specifically at 75 μM and 100 μM): significantly reduced the cell viability; also recorded: decreases the viability
cell viability [5]: not affected
size of the colonies in Matrigel ([6]; P14B added 24 h after seeding, 40 μM): clear reduction in the size of the colonies
capacity to form colonies in Matrigel ([6]; P14B added when seeding the cells, 10 μM): drastic reduction in the capacity to form colonies
